# Results: ChEMBL document CHEMBL4004838, “Design and synthesis of novel phenyl -1, 4-beta-carboline-hybrid molecules as potential anticancer agents” (Eur J Med Chem, 2017)
# Assays:
# Type in all cases: functional
# SK-OV-3 = experiment: Growth inhibition of human SKOV3 cells assessed as cell growth at 10^-5 M incubated for 48 hrs by sulforhodamine B assay relative to control; conditions: SK-OV-3, 48 h, read-out: Activity
# NCI-H460 = experiment: Growth inhibition of human NCI-H460 cells assessed as cell growth at 10^-5 M incubated for 48 hrs by sulforhodamine B assay relative to control; conditions: NCI-H460, 48 h, read-out: Activity
# SNB-19 = experiment: Growth inhibition of human SNB19 cells assessed as cell growth at 10^-5 M incubated for 48 hrs by sulforhodamine B assay relative to control; conditions: SNB-19, 48 h, read-out: Activity
# DU-145 = experiment: Growth inhibition of human DU145 cells assessed as cell growth at 10^-5 M incubated for 48 hrs by sulforhodamine B assay relative to control; conditions: DU-145, 48 h, read-out: Activity
# A498 = experiment: Growth inhibition of human A498 cells assessed as cell growth at 1 uM incubated for 48 hrs by sulforhodamine B assay relative to control; conditions: A498, 48 h, read-out: Activity
# A549 = experiment: Growth inhibition of human A549/ATCC cells assessed as cell growth at 0.01 uM incubated for 48 hrs by sulforhodamine B assay relative to control; conditions: A549, 48 h, read-out: Activity
# PC-3 = experiment: Growth inhibition of human PC3 cells assessed as cell growth at 10^-5 M incubated for 48 hrs by sulforhodamine B assay relative to control; conditions: PC-3, 48 h, read-out: Activity
# HOP-62 = experiment: Growth inhibition of human HOP62 cells assessed as cell growth at 10^-5 M incubated for 48 hrs by sulforhodamine B assay relative to control; conditions: HOP-62, 48 h, read-out: Activity
# IGROV-1 = experiment: Growth inhibition of human IGROV1 cells assessed as cell growth at 10^-5 M incubated for 48 hrs by sulforhodamine B assay relative to control; conditions: IGROV-1, 48 h, read-out: Activity
# SN12C = experiment: Growth inhibition of human SN12C cells assessed as cell growth at 10^-5 M incubated for 48 hrs by sulforhodamine B assay relative to control; conditions: read-out: Activity
# SF-539 = experiment: Growth inhibition of human SF539 cells assessed as cell growth at 100 uM incubated for 48 hrs by sulforhodamine B assay relative to control; conditions: SF-539, 48 h, read-out: Activity
# HCT-15 = experiment: Growth inhibition of human HCT15 cells incubated for 48 hrs by sulforhodamine B assay; conditions: HCT-15, 48 h
# SK-MEL-5 = experiment: Growth inhibition of human SK-MEL-5 cells assessed as cell growth at 10^-5 M incubated for 48 hrs by sulforhodamine B assay relative to control; conditions: SK-MEL-5, 48 h, read-out: Activity
# NCI/ADR-RES = experiment: Growth inhibition of human NCI-ADR-RES cells assessed as cell growth at 10^-5 M incubated for 48 hrs by sulforhodamine B assay relative to control; conditions: read-out: Activity
compound,measurement,setting,value
c1ccc2[nH]c(-c3ccc(-c4nccc5c4[nH]c4ccccc45)cc3)nc2c1,growth at 10 µM,SK-OV-3,22 to 104%
same,growth at 10 µM,NCI-H460,42.9%
same,growth at 10 µM,SNB-19,27 to 55.1%
same,growth at 10 µM,DU-145,19 to 67.4%
same,growth at 1 µM,A498,92%
same,growth at 0.01 µM,A549,98%
same,growth at 10 µM,PC-3,47 to 85.7%
same,growth at 10 µM,HOP-62,2 to 86.1%
same,growth at 10 µM,IGROV-1,25 to 94.5%
same,growth at 10 µM,SN12C,60.9%
same,growth at 100 µM,SF-539,70%
same,GI50,HCT-15; read-out: GI50,2.22 µM
same,LC50,HCT-15; read-out: LC50,3 µM
same,TGI,HCT-15; read-out: TGI,5.61 µM
same,GI50,HCT-15; read-out: pGI50 (converted),2.24 µM
same,LC50,HCT-15; read-out: pLC50 (converted),30.2 µM
same,TGI,HCT-15; read-out: pTGI (converted),5.62 µM
same,growth at 10 µM,SK-MEL-5,16 to 62.6%
same,growth at 10 µM,NCI/ADR-RES,10 to 62.6%
